# Columns and labels:
# [1] = used within 72 hours of unprotected intercourse; cited from earlier work
# [2] = Metabolism in liver microsomal preparations; type: in vitro ADME, mice, rats, rabbits, dogs, monkeys and humans; conditions: in vitro
# Description: Metabolism of ulipristal acetate was investigated in vitro in liver microsomal preparations from mice, rats, rabbits, dogs, monkeys and humans.
smiles,measurement,setting,value
"CC(=O)O[C@]1(C(C)=O)CC[C@H]2[C@@H]3CCC4=CC(=O)CCC4=C3[C@@H](c3ccc(N(C)C)cc3)C[C@@]21C [ulipristal acetate, 17α-acetoxy-11β-[4-N,N-dimethylamino-phenyl)-19-norpregna-4,9-diene-3,20-dione]",Efficacy for preventing pregnancy compared with levonorgestrel,[1],as efficacious as levonorgestrel
same,Metabolites produced in liver microsomes across species,"[2]; liver microsomes from mice, rats, rabbits, dogs, monkeys and humans, proportions varied between species",All species produced the same two major metabolites
same,Metabolite unique to humans,"[2]; liver microsomes, humans compared with the other species",No metabolite was detected which was unique to humans

# From patent US20120115802A1, “Method for using ulipristal acetate with cytochrome isozyme modulators” (LABORATOIRE HRA PHARMA, priority 2010, published 2012)
